Data from PubChem BioAssay (NCI).
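Values below derive from 48-hour exposures of cells grown in 96-well plates, with endpoints linearly interpolated between the two concentrations bracketing the appropriate inhibition level. At the GI50, growth is halved. TGI denotes the concentration required for complete inhibition of growth.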

Tests used:
Test in all cases: NCI tumour cell line growth inhibition, 48 h
LXFL 529 NSCLC = tested on: LXFL 529 NSCLC
SN12K1 renal = tested on: SN12K1 renal
P388 leukemia = tested on: P388 leukemia
P388/ADR leukemia = tested on: P388/ADR leukemia

| SMILES | TGI (LXFL 529 NSCLC) [µM] | TGI (SN12K1 renal) [µM] | TGI (P388 leukemia) [µM] | TGI (P388/ADR leukemia) [µM] | GI50 (SN12K1 renal) [µM] | GI50 (P388 leukemia) [µM] | GI50 (P388/ADR leukemia) [µM] |
| --- | --- | --- | --- | --- | --- | --- | --- |
| COc1ccc2nc3cc(Cl)ccc3c(NC(C)CCCN(CCCl)CCCl)c2c1 (stereo unspecified) | 2.5 |  |  |  |  |  |  |
| C=CCNC(=O)C(C)C1CCC2(C)C=CC(=O)C(C)=C2C1O (stereo unspecified) |  | > 100 | > 100 | > 100 |  |  |  |
| C=C(C#N)C(=O)OCC(CC)CC.C=C(C#N)C(=O)OCC(CC)CC.CS(C)=O.CS(C)=O.Nc1c(N=Nc2ccc(-c3ccc(N=Nc4cc(S(=O)(=O)[O-])c5ccccc5c4N)cc3)cc2)cc(S(=O)(=O)[O-])c2ccccc12.[Pt+2] |  | 40.1 | > 100 | > 100 | 19.7 | 29.6 | 27.2 |
| CCN(CC)CCNc1ccc2ncn3c4ccc(O)cc4c(=O)c1c23 | 17.6 |  |  |  |  |  |  |
